# In US20250375529A1, “PHOSPHORYLCHOLINE-TUFTSIN CONJUGATE FOR TREATING OCULAR INFLAMMATION” (TARSIER PHARMA LTD., priority 2017, published 2025):
# What was measured:
# [1] = tested on: anti-CD3-activated PBMCs; assay: Effects of TPC on cytokine secretion by anti-CD3-activated PBMCs (Luminex); format: cell-based
# Procedure: FIGS. 1A-1B: Very low dose TPC has a strong immunomodulatory effect. Bar graphs showing the effects of TPC at a range of doses, on anti-CD3-activated PBMCs 48 h after treatment. Secretion of pro-inflammatory cytokine TNFα (1A) and anti-inflammatory cytokine IL-10 (1B) are shown. Column statistics, one-sample t test compared to a hypothetical value of 100 was used. *-P<0.05, **-P<0.01, ***-P<0.005
# The immunomodulatory effect of TPC was determined in vitro on PBMCs from healthy donors. PBMCs were harvested and allowed to adhere to culture plates. TPC at various concentrations, or PBS or dexamethasone as controls were then added and an hour later anti-CD3 stimulating antibody was added to induce an inflammatory state. 48 hours later the supernatant was harvested from the cells and cytokine levels were assayed using standard Luminex protocols. Levels of cytokine induction was interpolated from standard curves, using 5-parameter non-linear regression analyses, where y=(A+((B−A)/(1+(((B−E)/(E−A))*((x/C)^D))))). The interpolated data was then normalized to vehicle controls (anti-CD3 stimulation alone). […] Once again, the effect was greatest at very low doses, as the 0.005 μg/ml TPC dose had the strongest effect causing a 33% increase in IL-10 levels. […] (FIG. 1B).
# [2] = tested on: THP-1 human monocyte cell line polarized to M1 macrophages; assay: IL-10 secretion by THP-1-derived M1 macrophages; format: cell-based; details: THP-1 M0 (100 ng/ml PMA 48 hours) polarized to M1 with 10 ng/ml LPS; TPC 400 ug/ml, dexamethasone 1 uM, IL-4 and IL-13 20 ng/ml; versus PBS control
# Procedure: FIG. 2: TPC enhances the anti-inflammatory effect of steroids. A bar graph showing the effect of IL-4/IL-13, TPC, dexamethasone and dexamethasone+TPC on IL-10 secretion by macrophages. *-P<0.05, **-P<0.01
# To test the hypothesis that a combination of steroids and TPC will have a beneficial effect on treating inflammation, cells of the THP-1 human monocyte cell line were differentiated to M0 macrophages with 100 ng/ml PMA for 48 hours and then polarized to M1 macrophages with 10 ng/ml LPS. These cells were then tested with the following compounds: PBS (negative control), IL-4 and IL-13 (20 ng/ml, positive control as they induce the cells to a M2 phenotype), TPC (400 ug/ml), dexamethasone (1 uM), and a combination of dexamethasone (1 uM) and TPC (400 ug/ml). […] Further, since TPC itself reduces pro-inflammatory cytokine secretion as well, it may be used, not just in combination, but to reduce the total dose of steroid administered.
# [3] = tested on: lupus prone mice; details: subcutaneous (5 μg/mouse) and oral (50 μg/mouse and 250 μg/mouse) administration; cited from earlier work
# [4] = tested on: mice with dextran sodium sulfate induced colitis; details: subcutaneous (5 μg/mouse) and oral (50 μg/mouse and 250 μg/mouse) administration; cited from earlier work
# [5] = tested on: mice with collagen-induced arthritis; details: subcutaneous (5 μg/mouse) and oral (50 μg/mouse and 250 μg/mouse) administration; cited from earlier work
# [6] = tested on: experimental mouse models of autoimmune diseases; details: in the three mouse models; cited from earlier work
# [7] = 0.005 μg/ml TPC, PBMCs from healthy donors, anti-CD3 stimulation, supernatant at 48 hours, normalized to vehicle control (anti-CD3 alone)
substance,measurement,setting,value
Tuftsin-PhosphorylCholine [TPC],increase in IL-10 levels,[1]; [7],33%
same,lowering of TNFα levels,[1]; [7],41%
same,increase on IL-10 secretion as compared to dexamethasone,"[1]; anti-CD3-activated PBMCs, 48 hours, TPC relative to dexamethasone",220%
same,IL-10 expression,[2],strong increase
same,glomerulonephritis onset,[3],prevented
same,colitis,[4],reduced
same,joint damage,[5],prevented
same,T and B regulatory cells,[6],enhanced expansion
same,anti-inflammatory IL-10,[6],increased
same,"proinflammatory cytokine expression such as IL-6, IL-17, TNFα, IFNγ",[6],inhibited
